How the values were obtained:
[1] = target: T1, Synaptic vesicular amine transporter (Rattus norvegicus, UniProt Q01827); assay: Inhibition of [3H]DA uptake at VMAT2 in rat striatal synaptic vesicles
[2] = target: T1, Synaptic vesicular amine transporter; assay: Inhibition of [3H]DTBZ binding to VMAT2 in rat synaptic vesicle membranes; type: cell membranes

T1 sequence (Q01827 whole entry): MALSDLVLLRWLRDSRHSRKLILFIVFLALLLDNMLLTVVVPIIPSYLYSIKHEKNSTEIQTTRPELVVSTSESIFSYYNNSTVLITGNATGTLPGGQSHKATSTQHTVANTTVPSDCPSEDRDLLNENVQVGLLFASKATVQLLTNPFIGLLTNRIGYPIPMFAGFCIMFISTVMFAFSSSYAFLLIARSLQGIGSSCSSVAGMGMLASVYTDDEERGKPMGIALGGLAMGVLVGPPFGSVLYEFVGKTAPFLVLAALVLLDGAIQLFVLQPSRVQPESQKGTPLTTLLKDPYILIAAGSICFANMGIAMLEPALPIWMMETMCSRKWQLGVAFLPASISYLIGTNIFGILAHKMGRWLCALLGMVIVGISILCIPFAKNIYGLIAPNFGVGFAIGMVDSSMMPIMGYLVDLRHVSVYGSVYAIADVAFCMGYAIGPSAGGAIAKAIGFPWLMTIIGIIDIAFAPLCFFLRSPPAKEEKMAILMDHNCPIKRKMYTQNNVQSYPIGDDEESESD

Row | SMILES | Ki [1] [nM] | Ki [2] [nM]
1 | c1ccc(CC[C@H]2CCC[C@@H](CCc3ccccc3)N2)cc1 | 44 | 
2 | CCN1[C@@H](CCc2ccccc2)CCC[C@H]1CCc1ccccc1 | 60 | 
3 | CCCN1[C@@H](CCc2ccccc2)CCC[C@H]1CCc1ccccc1 | 87 | 
4 | COC(=O)CN1[C@@H](CCc2ccccc2)CCC[C@H]1CCc1ccccc1 | 340 | 4400
5 | OCCN1[C@@H](CCc2ccccc2)CCC[C@H]1CCc1ccccc1 | 170 | 1430
6 | N#CCN1[C@@H](CCc2ccccc2)CCC[C@H]1CCc1ccccc1 | 4490 | 22600
7 | NCCN1[C@@H](CCc2ccccc2)CCC[C@H]1CCc1ccccc1 | 510 | 5590
8 | CN(C)CCN1[C@@H](CCc2ccccc2)CCC[C@H]1CCc1ccccc1 | 180 | 9590
9 | N=C(N)NCCN1[C@@H](CCc2ccccc2)CCC[C@H]1CCc1ccccc1 | 680 | 3490
10 | CN(C)N1[C@@H](CCc2ccccc2)CCC[C@H]1CCc1ccccc1 | 54 | > 100000
11 | OC[C@H](O)CN1[C@@H](CCc2ccccc2)CCC[C@H]1CCc1ccccc1 | 190 | 560
12 | OC[C@@H](O)CN1[C@@H](CCc2ccccc2)CCC[C@H]1CCc1ccccc1 | 860 | 1280
13 | OC[C@H](O)CN1[C@@H](CCc2ccc3c(c2)OCO3)CCC[C@H]1CCc1ccc2c(c1)OCO2 | 160 | 1300
14 | OC[C@@H](O)CN1[C@@H](CCc2ccc3c(c2)OCO3)CCC[C@H]1CCc1ccc2c(c1)OCO2 | 760 | 5610
15 | OC[C@H](O)CN1[C@@H](CCc2cccc(F)c2)CCC[C@H]1CCc1cccc(F)c1 | 190 | 1000
16 | OC[C@@H](O)CN1[C@@H](CCc2cccc(F)c2)CCC[C@H]1CCc1cccc(F)c1 | 1030 | 1080
17 | COc1ccccc1CC[C@H]1CCC[C@@H](CCc2ccccc2OC)N1C[C@@H](O)CO | 490 | 1040

Row | SMILES | Ki [1] [nM] | Ki [2] [nM]
18 | COc1ccccc1CC[C@H]1CCC[C@@H](CCc2ccccc2OC)N1C[C@H](O)CO | 790 | 1870
19 | COc1cccc(CC[C@H]2CCC[C@@H](CCc3cccc(OC)c3)N2C[C@@H](O)CO)c1 | 140 | 460
20 | COc1cccc(CC[C@H]2CCC[C@@H](CCc3cccc(OC)c3)N2C[C@H](O)CO)c1 | 520 | 2730
21 | OC[C@H](O)CN1[C@@H](CCc2ccc(Cl)cc2Cl)CCC[C@H]1CCc1ccc(Cl)cc1Cl | 140 | 10400
22 | OC[C@@H](O)CN1[C@@H](CCc2ccc(Cl)cc2Cl)CCC[C@H]1CCc1ccc(Cl)cc1Cl | 90 | 13900
23 | OC[C@H](O)CN1[C@@H](CCc2cccc3ccccc23)CCC[C@H]1CCc1cccc2ccccc12 | 30 | 310
24 | OC[C@@H](O)CN1[C@@H](CCc2cccc3ccccc23)CCC[C@H]1CCc1cccc2ccccc12 | 80 | 130
25 | OC[C@H](O)CN1[C@@H](CCc2ccc(-c3ccccc3)cc2)CCC[C@H]1CCc1ccc(-c2ccccc2)cc1 | 790 | > 100000
26 | OC[C@@H](O)CN1[C@@H](CCc2ccc(-c3ccccc3)cc2)CCC[C@H]1CCc1ccc(-c2ccccc2)cc1 | 2250 | 90200
27 | FC(F)Oc1ccc(CC[C@H]2CCC[C@@H](CCc3ccc(OC(F)F)cc3)N2)cc1 | 23 | 1750
28 | OC[C@H](O)CN1[C@@H](CCc2ccc(OC(F)F)cc2)CCC[C@H]1CCc1ccc(OC(F)F)cc1 | 60 | 530
29 | COc1ccc(F)c(CC[C@H]2CCC[C@@H](CCc3cc(OC)ccc3F)N2)c1 | 39 | 930
30 | COc1ccc(F)c(CC[C@H]2CCC[C@@H](CCc3cc(OC)ccc3F)N2C[C@@H](O)CO)c1 | 160 | 210
31 | Fc1cc(F)cc(CC[C@H]2CCC[C@@H](CCc3cc(F)cc(F)c3)N2)c1 | 43 | 5240
32 | OC[C@H](O)CN1[C@@H](CCc2cc(F)cc(F)c2)CCC[C@H]1CCc1cc(F)cc(F)c1 | 104 | 620
33 | COc1ccc(C[C@H]2CCC[C@@H](Cc3ccc(OC)cc3)N2)cc1 | 48 | 13100
34 | COc1ccc(C[C@H]2CCC[C@@H](Cc3ccc(OC)cc3)N2C[C@@H](O)CO)cc1 | 570 | 91000
